# Test results published in US20100216761A1, “NOVEL AZETIDINONES USEFUL AS INHIBITORS OF ELASTASE” (priority 2007, published 2010).
# Target: T1, Human Leukocyte Elastase (HLE) (Homo sapiens, UniProt P08246)
# T1 construct: The PMN lysates were prepared by isolating human neutrophils from whole blood; from tissue; host or cells: human neutrophils (PMN) isolated from whole blood, lysed by sonication in PBS
# T1 sequence (P08246 30-267): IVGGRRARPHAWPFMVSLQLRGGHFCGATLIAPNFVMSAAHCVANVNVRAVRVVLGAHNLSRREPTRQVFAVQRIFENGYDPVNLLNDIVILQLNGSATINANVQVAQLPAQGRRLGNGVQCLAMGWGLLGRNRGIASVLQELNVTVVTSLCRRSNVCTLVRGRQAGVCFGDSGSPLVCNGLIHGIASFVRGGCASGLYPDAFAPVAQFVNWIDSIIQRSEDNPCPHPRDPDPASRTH
# Assay: HLE time-dependent reactivation (off-rate) assay
# Type: biochemical
# Conditions: head-to-head with Examples 1 and 3
# Procedure: An important and desirable aspect of these mechanism-based HLE inhibitors is also the extent to which the enzyme remains inactivated or, in other words, the rate at which the modified inhibitor comes off the enzyme after the inactivation event has occurred and which then gives back the active HLE enzyme (see Note 2c and 4). This property was assessed in a time-dependent reactivation assay and the results were calculated as a first-order rate constant expressed as their half-lives in hours (t1/2). […] Under head-to-head conditions (n=2) with Examples 1 and 3, the off-rate for the comparator Compound #290 of U.S. Pat. No. 5,591,737 was determined to be 7.1 hrs, or about 2.5-2.6 times as fast.
# Elastase was incubated with 100-fold molar excess of inhibitor in TES buffer (0.045M TES, 0.45M NaCl, pH 7.5, 0.1% BSA) at room temperature for 60 minutes. After the incubation was complete, the samples were loaded onto prepared columns (Micro BioSpin Chromatography Columns-Bio-Gel P-6 Columns Bio-Rad Cat# 732-6221; prepared as directed by the manufacturer). […] At specific time points, the filtrate was monitored for elastase activity by adding the filtrate to 1 mM substrate (MeoSucc-AAPV-pNA; Elastin Products Cat# FH237) in TES buffer (0.045M TES, 0.45M NaCl, pH 7.5) and measuring the absorbance at 410 nm. The absorbance was monitored every 10 seconds for 5 minutes. […]
compound,measurement,value
"CCC[C@@H](NC(=O)N1C(=O)C(CC)(CC)[C@@H]1Oc1ccc(C(=O)N(C)CCN(C)C)cc1)c1ccc(OC)cc1 [Compound #290, reference compound]",off-rate relative to Examples 1 and 3 (times as fast),2.5-2.6 times
